Source: ChEMBL document CHEMBL1131401, “Potent and selective bicyclic lactam inhibitors of thrombin: Part 2: P1 modifications” (Bioorg Med Chem Lett, 1998)

Tests used:
Rattus norvegicus = assay: In vivo mean occlusion time for the antithrombic activity in rat arterial thrombosis model; assay type: functional
Serine protease 1 [1] = biological target: T1, Serine protease 1 (Homo sapiens, UniProt P07477); assay: In vitro inhibitory activity against trypsin
Prothrombin = Prothrombin (Homo sapiens, UniProt P00734); assay: In vitro inhibitory activity against thrombin(FIIa)
Serine protease 1 [2] = biological target: T1, Serine protease 1; assay: In vitro inhibitory activity against trypsin at concentration 100 uM

T1 sequence (P07477 whole entry): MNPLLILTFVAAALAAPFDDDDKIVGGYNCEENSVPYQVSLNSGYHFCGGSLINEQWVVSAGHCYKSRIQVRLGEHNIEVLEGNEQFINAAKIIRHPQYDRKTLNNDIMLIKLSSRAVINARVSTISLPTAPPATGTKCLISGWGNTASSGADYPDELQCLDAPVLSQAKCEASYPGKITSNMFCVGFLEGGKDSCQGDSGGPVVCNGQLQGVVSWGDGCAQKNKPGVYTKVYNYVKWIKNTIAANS

| SMILES | MOT (Rattus norvegicus) [min] | IC50 (Serine protease 1 [1]) [µM] | IC50 (Prothrombin) [µM] | inhibition (Serine protease 1 [2]) [%] |
| --- | --- | --- | --- | --- |
| N=C(N)NCCC[C@H](NC(=O)[C@@H]1CC[C@H]2CN(C(=O)CCc3ccccc3)CC(=O)N21)C(=O)c1nccs1 | 42 | < 0.001 |  |  |
| N=C(N)N1CCCC(C[C@H](NC(=O)[C@@H]2CC[C@H]3CN(C(=O)CCc4ccccc4)CC(=O)N32)C(=O)c2nccs2)C1 (some centres undefined) | >60 | 4.36 | 0.03 |  |
| N=C(N)N1CCC([C@@H](NC(=O)[C@@H]2CC[C@H]3CN(C(=O)CCc4ccccc4)CC(=O)N32)C(=O)c2nccs2)CC1 |  |  | 0.15 | 31 |
| N=C(N)c1cccc(C[C@H](NC(=O)[C@@H]2CC[C@H]3CN(C(=O)CCc4ccccc4)CC(=O)N32)C(=O)c2nccs2)c1 | 18 | 7.75 | 0.077 |  |
| N=C(N)N1CCCC(C[C@@H](NC(=O)[C@@H]2CC[C@H]3CN(C(=O)CCc4ccccc4)CC(=O)N32)C(=O)c2nccs2)C1 (some centres undefined) | 27 | 31.6 | 0.137 |  |
| N[C@H]1CC[C@H]([C@H](NC(=O)[C@@H]2CC[C@H]3CN(C(=O)CCc4ccccc4)CC(=O)N32)C(=O)c2nccs2)CC1 | 48 | 8.99 | 0.033 |  |
| N=C(N)N1CCC([C@H](NC(=O)[C@@H]2CC[C@H]3CN(C(=O)CCc4ccccc4)CC(=O)N32)C(=O)c2nccs2)CC1 | 57 | 11.9 | 0.001 |  |
